# Data taken from patent publication US20110136728A1, “METHODS OF INCREASING BONE FORMATION USING LEPTIN-RELATED PEPTIDES” (priority 2009, published 2011).
# Several values for one entry are separate records, joined by “and”; a condition that tells them apart may be missing. Identical values can stand only once. Entries after “also recorded” stand apart in the source; their conditions may differ. Non-standard residues stand in square brackets, D forms with d. Residues, ends and D or L forms follow the SMILES beside them.
# Key:
# [1] = tested on: male C57BL/6J wild type mice; test: Oral delivery (gavage) in ad libitum fed wild type mice: body weight, food and water intake, serum glucose, serum osteocalcin; format: in vivo, mouse
# Method: Six week-old male C57BL/6J wild type and ob/ob mice were obtained from Jackson Laboratories (Bar Harbor, Me., USA). The animals were housed individually polycarbonate cages fitted with stainless steel wire lids and air filters, and supported on ventilated racks (Thoren Caging Systems, Hazelton, Pa., USA) in the Albany Medical College Animal Resources Facility. The mice were maintained at a constant temperature (24° C.) with lights on from 07:00 to 19:00, and allowed food and water ad libitum for 6 days following arrival. During the test period, mice were fed ad libitum or calorie restricted to 60% of normal. Water intake was allowed ad libitum.
# On day 1 of the study, and on each day thereafter, a water bottle containing 200 ml of water was added to each cage between 09:00 and 10:00 h. Mice fed ad libitum were given 200 g of pelleted rodent diet (Prolab Rat, Mouse, Hamster 3000, St. Louis, Mo.; 22% crude protein, 5% crude fat, 5% fiber, 6% ash, 2.5% additional minerals) between 09:00 and 10:00 h each day. The mice were weighed once daily between 09:00 and 10:00 h on an Acculab V-333 electronic balance (Cole-Parmer, Vernon Hills, Ill., USA). Calorie-restricted wild type and ob/ob mice received 60% of normal daily intake. Twenty four hours later, food and water remaining in the cages was measured to the nearest 0.1 g and 0.1 ml, respectively. To assure fasting glucose levels on days in which blood glucose was measured, food was removed from the cages between 09:00 and 10:00 h, and replaced immediately before the beginning of the dark cycle.
# Mouse [D-Leu-4]OB3 was prepared commercially as a C-terminal amide by Bachem (Torrance, Calif., USA). The peptide was dissolved in 0.3% Intravail A3® (Aegis Therapeutics, San Diego, Calif. USA) reconstituted in water, and administered by gavage once daily for 10 days at a concentration of 1 mg/200 μl immediately before the start of the dark cycle. Is has previously been shown that this is the optimum concentration of mouse [D-Leu-4]-OB3 and its related bioactive peptide amides, for regulating energy expenditure, glucose levels, and insulin sensitivity in two genetically obese mouse models (see Rozhayskaya-Arena M. et al., Endocrinology 141:2501-2517 (2000); Grasso P. et al. Regulatory Pep. 101:123-129 (2001); Grasso P. et al., Diabetes 48:2204-2209 (1999), Grasso P. et al., Endocrinology 138:1413-1418 (1997); Grasso P. et al., Regulatory Peptides 85:93-100 (1999); and Grasso P. et al., Diabetes 48:2204-2209 (1999)). Vehicle injected control mice received 200 ul of Intravail A3® only.
# Initial blood samples were drawn by snipping the end of the tail of each mouse at the beginning of the study (day 0); subsequent samples were obtained by gently removing the scab. Blood was taken 1 h before the onset of the dark period at the beginning of the study, and after 2, 4, 6, 8, and 10 days of treatment. The blood was applied to a test strip, and glucose levels were measured with a Glucometer Elite glucose meter (Bayer, Elkhart, Ind., USA).
# At the end of the study, the mice were anesthetized with isoflurane (5%) and exsanguinated by cardiac puncture. Euthanasia was confirmed by cervical dislocation. The blood was collected in sterile nonheparinized plastic centrifuge tubes and allowed to stand at room temperature for 1 h. The clotted blood was rimmed from the walls of the tubes with sterile wooden applicator sticks. Individual serum samples were prepared by centrifugation for 30 min at 2600×g in an Eppendorf 5702R, A-4-38 rotor (Eppendorf North America, Westbury, N.Y., USA). The serum samples in each experimental group (n=6) were pooled and stored frozen until assayed for osteocalcin content.
# Serum osteocalcin in the pooled samples was assayed in triplicate with a mouse osteocalcin ELISA kit obtained from Biomedical Technologies, Inc. (Stoughton, Mass., USA) according to the instructions supplied by the manufacturer. […]
# [2] = tested on: male C57BLK/6-m db/db mice; test: Intranasal delivery in db/db mice: body weight, food and water intake, serum glucose, insulin, osteocalcin; format: in vivo, mouse
# Method: Each bar and vertical line represents mean±SEM serum glucose level (n=6).
# FIG. 17. Effects of intranasal administration of mouse [D-Leu-4]-OB3 (1 mg/day, 14 days) on body weight gain in C57BLk/6-m db/db mice. […] Each point represents the mean±standard error of mean change in body weight for a group of six mice.
# In the present study, the effects of intranasal administration of mouse [D-Leu-4]-OB3 in Intravail® on energy balance, serum osteocalcin, and serum insulin levels in genetically obese male C57BLK/6-m db/db mice allowed food and water ad libitum were examined. […] (See FIGS. 12 and 13). […] (See FIGS. 14 and 15).
# In the present study, the effects of intranasal delivery of mouse [D-Leu-4]-OB3 in Intravail® on energy balance, glucose regulation, insulin secretion, and serum levels of osteocalcin, a specific and sensitive marker of bone formation were examined Genetically obese C57BLK/6-m db/db mice were allowed food and water ad libitum, and given either Intravail® alone or mouse [D-Leu-4]-OB3 in Intravail® for 14 days. […] Serum insulin levels in db/db mice given mouse [D-Leu-4]-OB3 were approximately 3-fold lower than those in mice receiving Intravail® alone. Mouse [D-Leu-4]-OB3 elevated serum osteocalcin in db/db mice by 28.7% over Intravail® treated control mice. […] In addition, its effects on bone turnover may also be useful in the prevention and/or reversal of at least some of the bone loss which accompanies osteoporosis, anorexia nervosa, cancer, and other wasting diseases not associated with the obesity syndrome.
# [3] = 1 mg/day, 10 days, gavage in Intravail
# [4] = 1 mg/day, 14 days, intranasal in Intravail
structure (smiles),measurement,setting,value
CC(C)C[C@@H](NC(=O)[C@H](CO)NC(=O)[C@H](CS)NC(=O)[C@@H](N)CO)C(=O)N1CCC[C@H]1C(=O)N[C@@H](CCC(N)=O)C(=O)N[C@H](C(N)=O)[C@@H](C)O [mouse [D-Leu-4]-OB3] (H-SCS[dL]PQT-NH2; N-terminus assumed),Body weight (% of initial),[1]; [3],95.6 ± 0.5 % of initial
same,Final body weight,[1]; [3],21.6 ± 0.7 g
same,Serum osteocalcin,[1]; [3],246.6 ± 6.0 ng/mL
same,daily food intake compared to Intravail treated controls,[1]; 10 days gavage,not associated with any significant difference in daily food intake
same,serum glucose after treatment,[1]; 10 days gavage,significantly (P<0.001) reduced
same,serum osteocalcin levels compared to Intravail treated controls,[1]; 10 days gavage,essentially the same; also recorded: slightly elevated
same,water intake compared to Intravail treated controls,[1]; 10 days gavage,essentially the same; also recorded: no significant difference in water intake
same,loss of initial body weight,[1]; after 10 days gavage,4.4%
same,Final serum glucose,"[1]; after 10 days, 1 mg/day gavage in Intravail",124.5 ± 24.6 mg/dL
same,Initial serum glucose,[1]; day 0,173.3 ± 7.3 mg/dL
same,Initial body weight,"[1]; day 0, 1 mg/day, 10 days, gavage in Intravail",22.6 ± 0.8 g
same,reduction of body weight gain,[1]; oral delivery,4.4%
same,reduction of food intake,[1]; oral delivery,6.8%
same,reduction of serum glucose,[1]; oral delivery,28.2%
same,Body weight (% of initial),[2]; [4],104.9 ± 1.4 % of initial
same,Final body weight,[2]; [4],37.0 ± 1.7 g
same,Food intake,[2]; [4],6.1 g/mouse/day and 6.1 ± 0.3 g/mouse/day
same,Serum insulin,[2]; [4],0.95 ng/mL and 0.95 ± 0.03 ng/mL
same,Serum osteocalcin,[2]; [4],470 ng/mL and 470.0 ± 20.0 ng/mL
same,Water intake,[2]; [4],21.2 ml/mouse/day and 21.2 ± 1.8 ml/mouse/day
same,reduction of serum glucose,[2]; 14 days intranasal in Intravail,61.9%
same,body weight increase over initial body weight (heavier),[2]; after 14 days intranasal in Intravail,4.9%
same,Initial serum glucose,[2]; day 0,472 ± 7.3 mg/dL
same,Initial body weight,"[2]; day 0, 1 mg/day, 14 days, intranasal in Intravail",35.0 ± 1.1 g
same,Final serum glucose,"[2]; day 14, 1 mg/day intranasal in Intravail",209 ± 89.4 mg/dL
